Laboratory results as given in PMC4411097, “Pachymic Acid Inhibits Growth and Induces Apoptosis of Pancreatic Cancer In Vitro and In Vivo by Targeting ER Stress” (PLoS ONE, 2015).

Tested on: MIA PaCa-2 cells
Assay: DNA microarray analysis (Affymetrix Human PrimeView);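 on Mean (MiaPaca-2 * PA): Log2-transformed RMA normalized probe set signal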
Type: cell-based
[1] = gene HNRNPM, probeset 11761514_at
[2] = gene IER5, probeset 11716629_at
[3] = gene IRAK2, probeset 11733240_at
[4] = gene LIF, probeset 11758619_s_at
[5] = gene LTB, probeset 11739657_a_at
[6] = gene MALAT1, probeset 11745723_a_at
[7] = gene MARS2, probeset 11729710_a_at
[8] = gene MARS2, probeset 11750890_a_at
[9] = gene MCL1, probeset 11715484_a_at
[10] = gene NAV3, probeset 11723147_a_at
[11] = gene NFKBIA, probeset 11745878_x_at
[12] = gene NFKBIA, probeset 11757894_x_at
[13] = gene PHLDA2, probeset 11744005_at
[14] = gene PLEKHG6, probeset 11733595_x_at
[15] = gene RPS4X, probeset 11761933_at
[16] = gene SAT1, probeset 11743036_s_at
[17] = gene SDC4, probeset 11717639_x_at
[18] = gene SDC4, probeset 11749921_a_at
[19] = gene SH3BP1, probeset 11728063_x_at
[20] = gene SLC3A2, probeset 11733071_a_at
[21] = gene SLC3A2, probeset 11741149_x_at
[22] = gene SLC3A2, probeset 11746697_a_at
[23] = gene SLC3A2, probeset 11753434_a_at
[24] = gene SLC16A6, probeset 11735090_s_at
[25] = gene SLC16A6, probeset 11754629_s_at
[26] = gene SMAGP, probeset 11719864_a_at

C=C(CC[C@@H](C(=O)O)[C@H]1[C@H](O)C[C@@]2(C)C3=C(CC[C@]12C)[C@@]1(C)CC[C@H](OC(C)=O)C(C)(C)[C@@H]1CC3)C(C)C [PA, Pachymic acid]
Fold-Change (MiaPaca-2 * PA vs. MiaPaca-2 * control) [1]: 1.65 | Mean (MiaPaca-2 * PA) [1]: 9.69 | Fold-Change (MiaPaca-2 * PA vs. MiaPaca-2 * control) (gene HNRNPM, probeset 11761516_x_at, MiaPaca-2): 1.50 | Mean (MiaPaca-2 * PA) (gene HNRNPM, probeset 11761516_x_at, MiaPaca-2, PA-treated): 10.58 | Fold-Change (MiaPaca-2 * PA vs. MiaPaca-2 * control) (gene HOOK1, probeset 11750347_a_at, MiaPaca-2): 1.50 | Mean (MiaPaca-2 * PA) (gene HOOK1, probeset 11750347_a_at, MiaPaca-2, PA-treated): 3.97 | Fold-Change (MiaPaca-2 * PA vs. MiaPaca-2 * control) [2]: 1.60 | Mean (MiaPaca-2 * PA) [2]: 7.72 | Fold-Change (MiaPaca-2 * PA vs. MiaPaca-2 * control) (gene IL12A, probeset 11756769_a_at, MiaPaca-2): 1.50 | Mean (MiaPaca-2 * PA) (gene IL12A, probeset 11756769_a_at, MiaPaca-2, PA-treated): 5.04 | Fold-Change (MiaPaca-2 * PA vs. MiaPaca-2 * control) [3]: 1.59 | Mean (MiaPaca-2 * PA) [3]: 6.52 | Fold-Change (MiaPaca-2 * PA vs. MiaPaca-2 * control) (gene KLHL29, probeset 11745365_at, MiaPaca-2): 1.51 | Mean (MiaPaca-2 * PA) (gene KLHL29, probeset 11745365_at, MiaPaca-2, PA-treated): 5.04 | Fold-Change (MiaPaca-2 * PA vs. MiaPaca-2 * control) (gene LIF, probeset 11726498_at): 1.55 | Mean (MiaPaca-2 * PA) (gene LIF, probeset 11726498_at): 7.20 | Fold-Change (MiaPaca-2 * PA vs. MiaPaca-2 * control) [4]: 1.55 | Mean (MiaPaca-2 * PA) [4]: 9.50 | Fold-Change (MiaPaca-2 * PA vs. MiaPaca-2 * control) (gene LRP8, probeset 11741376_a_at, MiaPaca-2): 1.53 | Mean (MiaPaca-2 * PA) (gene LRP8, probeset 11741376_a_at, MiaPaca-2, PA-treated): 7.95 | Fold-Change (MiaPaca-2 * PA vs. MiaPaca-2 * control) [5]: 1.54 | Mean (MiaPaca-2 * PA) [5]: 6.97 | Fold-Change (MiaPaca-2 * PA vs. MiaPaca-2 * control) (gene MAFF, probeset 11726611_x_at, MiaPaca-2): 1.50 | Mean (MiaPaca-2 * PA) (gene MAFF, probeset 11726611_x_at, MiaPaca-2, PA-treated): 6.99 | Fold-Change (MiaPaca-2 * PA vs. MiaPaca-2 * control) [6]: 1.55 | Mean (MiaPaca-2 * PA) [6]: 9.40 | Fold-Change (MiaPaca-2 * PA vs. MiaPaca-2 * control) [7]: 1.55 | Mean (MiaPaca-2 * PA) [7]: 6.32 | Fold-Change (MiaPaca-2 * PA vs. MiaPaca-2 * control) [8]: 1.61 | Mean (MiaPaca-2 * PA) [8]: 6.51 | Fold-Change (MiaPaca-2 * PA vs. MiaPaca-2 * control) [9]: 1.60 | Mean (MiaPaca-2 * PA) [9]: 8.79 | Fold-Change (MiaPaca-2 * PA vs. MiaPaca-2 * control) (gene MMP1, probeset 11741897_a_at, MiaPaca-2): 1.52 | Mean (MiaPaca-2 * PA) (gene MMP1, probeset 11741897_a_at, MiaPaca-2, PA-treated): 5.59 | Fold-Change (MiaPaca-2 * PA vs. MiaPaca-2 * control) [10]: 1.54 | Mean (MiaPaca-2 * PA) [10]: 5.19 | Fold-Change (MiaPaca-2 * PA vs. MiaPaca-2 * control) (gene NFKBIA, probeset 11744000_a_at): 1.65 | Fold-Change (MiaPaca-2 * PA vs. MiaPaca-2 * control) [11]: 1.67 | Mean (MiaPaca-2 * PA) [11]: 11.53 | Fold-Change (MiaPaca-2 * PA vs. MiaPaca-2 * control) [12]: 1.56 | Mean (MiaPaca-2 * PA) [12]: 11.80 | Fold-Change (MiaPaca-2 * PA vs. MiaPaca-2 * control) (gene PABPC1L, probeset 11721609_a_at, MiaPaca-2): 1.51 | Mean (MiaPaca-2 * PA) (gene PABPC1L, probeset 11721609_a_at, MiaPaca-2, PA-treated): 9.20 | Fold-Change (MiaPaca-2 * PA vs. MiaPaca-2 * control) [13]: 1.57 | Mean (MiaPaca-2 * PA) [13]: 8.15 | Fold-Change (MiaPaca-2 * PA vs. MiaPaca-2 * control) (gene PHLDB2, probeset 11737041_a_at, MiaPaca-2): 1.50 | Mean (MiaPaca-2 * PA) (gene PHLDB2, probeset 11737041_a_at, MiaPaca-2, PA-treated): 11.63 | Fold-Change (MiaPaca-2 * PA vs. MiaPaca-2 * control) [14]: 1.55 | Mean (MiaPaca-2 * PA) [14]: 5.78 | Fold-Change (MiaPaca-2 * PA vs. MiaPaca-2 * control) (gene PNP, probeset 11718400_a_at, MiaPaca-2): 1.50 | Mean (MiaPaca-2 * PA) (gene PNP, probeset 11718400_a_at, MiaPaca-2, PA-treated): 10.30 | Fold-Change (MiaPaca-2 * PA vs. MiaPaca-2 * control) (gene RBM3, probeset 11760141_s_at, MiaPaca-2): 1.52 | Mean (MiaPaca-2 * PA) (gene RBM3, probeset 11760141_s_at, MiaPaca-2, PA-treated): 5.58 | Fold-Change (MiaPaca-2 * PA vs. MiaPaca-2 * control) (gene RCAN1, probeset 11763514_x_at, MiaPaca-2): 1.51 | Mean (MiaPaca-2 * PA) (gene RCAN1, probeset 11763514_x_at, MiaPaca-2, PA-treated): 7.84 | Fold-Change (MiaPaca-2 * PA vs. MiaPaca-2 * control) (gene RPL37A, probeset 11759821_at, MiaPaca-2): 1.51 | Mean (MiaPaca-2 * PA) (gene RPL37A, probeset 11759821_at, MiaPaca-2, PA-treated): 7.62 | Fold-Change (MiaPaca-2 * PA vs. MiaPaca-2 * control) [15]: 1.59 | Mean (MiaPaca-2 * PA) [15]: 5.23 | Fold-Change (MiaPaca-2 * PA vs. MiaPaca-2 * control) [16]: 1.56 | Mean (MiaPaca-2 * PA) [16]: 10.67 | Fold-Change (MiaPaca-2 * PA vs. MiaPaca-2 * control) [17]: 1.61 | Mean (MiaPaca-2 * PA) [17]: 10.95 | Fold-Change (MiaPaca-2 * PA vs. MiaPaca-2 * control) [18]: 1.53 | Mean (MiaPaca-2 * PA) [18]: 8.87 | Fold-Change (MiaPaca-2 * PA vs. MiaPaca-2 * control) [19]: 1.54 | Mean (MiaPaca-2 * PA) [19]: 7.60 | Fold-Change (MiaPaca-2 * PA vs. MiaPaca-2 * control) [20]: 1.55 | Mean (MiaPaca-2 * PA) [20]: 8.64 | Fold-Change (MiaPaca-2 * PA vs. MiaPaca-2 * control) [21]: 1.56 | Mean (MiaPaca-2 * PA) [21]: 8.54 | Fold-Change (MiaPaca-2 * PA vs. MiaPaca-2 * control) [22]: 1.58 | Mean (MiaPaca-2 * PA) [22]: 8.64 | Fold-Change (MiaPaca-2 * PA vs. MiaPaca-2 * control) [23]: 1.53 | Mean (MiaPaca-2 * PA) [23]: 7.98 | Fold-Change (MiaPaca-2 * PA vs. MiaPaca-2 * control) (gene SLC3A2, probeset 11754529_x_at, MiaPaca-2): 1.52 | Mean (MiaPaca-2 * PA) (gene SLC3A2, probeset 11754529_x_at, MiaPaca-2, PA-treated): 9.50 | Fold-Change (MiaPaca-2 * PA vs. MiaPaca-2 * control) [24]: 1.58 | Mean (MiaPaca-2 * PA) [24]: 5.46 | Fold-Change (MiaPaca-2 * PA vs. MiaPaca-2 * control) [25]: 1.55 | Mean (MiaPaca-2 * PA) [25]: 6.21 | Fold-Change (MiaPaca-2 * PA vs. MiaPaca-2 * control) [26]: 1.55 | Mean (MiaPaca-2 * PA) [26]: 9.61 | Fold-Change (MiaPaca-2 * PA vs. MiaPaca-2 * control) (gene SMURF2, probeset 11748382_a_at, MiaPaca-2): 1.50 | Mean (MiaPaca-2 * PA) (gene SMURF2, probeset 11748382_a_at, MiaPaca-2, PA-treated): 8.51 | Fold-Change (MiaPaca-2 * PA vs. MiaPaca-2 * control) (gene SNHG12, probeset 11753858_a_at, MiaPaca-2): 1.50 | Mean (MiaPaca-2 * PA) (gene SNHG12, probeset 11753858_a_at, MiaPaca-2, PA-treated): 10.82 | Fold-Change (MiaPaca-2 * PA vs. MiaPaca-2 * control) (gene SPRY4, probeset 11736669_s_at, MiaPaca-2): 1.50
